A short description of data set [1]: In vivo pharmacokinetic study on cynomolgus monkeys, intravenous. The note with it: for AUC Differentiation (%): D8-enasidenib vs enasidenib; for AUC: cynomolgus monkey, plasma, iv, 1 mg/kg. Here is the method: Test compounds were dissolved to yield a final concentration at 0.2 mg/mL. The study conducted formulation analysis by HPLC. The four animals assigned to the study had body weights within ±20% of the mean body weight. The study was conducted in a cross-over matter with four phases to minimize individual difference. The dose level was 1 mg/Kg and the drug was administrated through intravenous (IV) route.
Blood samples (approximately 1.2 mL/sample) were collected from the […] vein at appropriate time points. Samples were placed in tubes containing sodium heparin and stored on ice until centrifuged. Blood samples were collected pre-dose and post-dose at post-dose 2 minutes, 5 minutes, 15 minutes, 30 minutes, 1 hour, 2 hours, 3 hours, 4 hours, 6 hours, 8 hours and 24 hours. The blood samples were centrifuged at approximately 8,000 rpm for 6 minutes at 2-8° C. Plasma samples were then collected and stored frozen at approximately −80° C. until analysis. The bioanalytical work was performed using a LC-MS/MS system.

Data set [2] in a line: Drug metabolism study with rat and human liver microsomes fortified with NADPH. The class given is in vitro ADME. The note with it: 10 μM, 1 mg/mL protein, 37° C., 60 minutes. The protocol:
This study was carried out to evaluate drug metabolism of the test compounds by rat and human microsomes. Test compounds were incubated with liver microsomes of rat (BioreclamationIVT, Lot# NNK) and human (BioreclamationIVT, Lot# HPG) at 37° C. for 60 minutes. The substrate compound concentration was at 10 μM and final protein concentration in incubation mixtures was 1 mg/mL. Reaction was stopped by adding three fold acetonitrile to the reaction mixture. The samples were vortexed and centrifuged to precipitate the proteins. The supernatants were transferred to clean tubes for drying under a stream of N2. The dried residues were reconstituted with 30% acetonitrile. Aliquots were injected into an LC/UV/MS system for metabolite ID and profiling. The LC/UV/MS system was Agilent 1100 HPLC (pumps, autosampler and PDA) interfaced to LTQ ion trap mass spectrometer (ThermoFinnigan). HPLC column was Luna C18(2) column, 250×2.0 mm, 5 The HPLC mobile phase gradient system were water and acetonitrile with 0.05% trifluoroacetic acid in both solvents.
The experimental data indicated oxidation (hydroxylation) and de-alkylation were two of major metabolism paths for enasidenib and D8-enasidenib. For oxidation on aromatic ring, the molecular weights of hydroxylation products were the original ones plus an oxygen (+16). The C—H bond of enasidenib is replaced by C—OH. For oxidation on side chains, the molecular weights of hydroxylation products are different for enasidenib vs. D8-enasidenib. For enasidenib, the C—H bond is also replaced by C—OH and the difference in molecular weights is 16. However, since D8-enasidenib loses a deuterium due to hydroxylation (C-D is replaced by C—OH), the difference of its molecular weight to the original is 15 (that is +O+H−D=15). (FIG. 2) Thus, the hydroxylation products for aromatic ring and side chain for enasidenib and D8-enasidenib can be identified.

Another data set has as its target T1, IDH2 R140Q (Homo sapiens, UniProt P48735, R140Q).
T1 sequence (P48735 40-452 R140Q): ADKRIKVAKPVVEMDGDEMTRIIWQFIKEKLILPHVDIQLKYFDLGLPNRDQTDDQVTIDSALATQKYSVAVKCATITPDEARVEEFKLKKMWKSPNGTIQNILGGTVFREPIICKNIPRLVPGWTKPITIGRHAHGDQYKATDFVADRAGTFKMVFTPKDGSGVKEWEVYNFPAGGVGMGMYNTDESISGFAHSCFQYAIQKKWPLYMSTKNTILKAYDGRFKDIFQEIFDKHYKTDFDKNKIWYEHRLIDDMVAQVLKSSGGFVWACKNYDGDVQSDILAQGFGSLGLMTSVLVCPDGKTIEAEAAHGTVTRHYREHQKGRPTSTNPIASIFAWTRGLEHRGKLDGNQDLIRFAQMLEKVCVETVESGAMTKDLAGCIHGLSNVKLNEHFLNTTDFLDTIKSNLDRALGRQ
Kind of data set: IC50 measurement against IDH2 R140Q (diaphorase/resazurin detection). The class given is biochemical. Here is the method: Compounds were tested in 10-dose IC50 mode with 3-fold serial dilution at a starting concentration of 10 μM. Substrate and co-factor were 8000 μM α-Ketoglutarate and 15 μM NADPH (reduced form of nicotinamide adenine dinucleotide phosphate). The reaction was carried out by mixing compound solutions with enzyme (IDH2 R140Q) and pre-incubated for 60 minutes. Then a four-fold substrate mixture was delivered to initiate the reaction. The solutions were incubated for 45 minutes at room temperature. Detection was performed using diaphorase and resazurin and measured in Envision (Perkin-Elmer). (Ex/Em=535/590 nm).

Where [3] appears, read: Average of four animals, 1 mg/Kg IV, monkey.
The mark [4] stands for this setting: animal MK-101, 1 mg/Kg IV, monkey.
The mark [5] stands for this setting: animal MK-201, 1 mg/Kg IV, monkey.
Setting [6] is: animal MK-301, 1 mg/Kg IV, monkey.
[7] abbreviates: animal MK-401, 1 mg/Kg IV, monkey.

SMILES strings stand for the structures.

The AUC is the area under the concentration-time curve, a measure of exposure. As usually defined, the IC50 is the concentration at which inhibition is half-maximal.

As to `[2H]C([2H])([2H])C(O)(C([2H])([2H])[2H])C([2H])([2H])Nc1nc(Nc2ccnc(C(F)(F)F)c2)nc(-c2cccc(C(F)(F)F)n2)n1` [D8-Enasidenib], the “AUC Differentiation (%)” value in data set [1] (Average) is 62.0%; in data set [1] (animal MK-101), 15.3%; in data set [1] (animal MK-201) it was 69.1%; in data set [1] (animal MK-301), 140%; in data set [1] (animal MK-401) it was 23.5%. Also, the AUC in data set [1] (setting [3]) came out at 7900 ng·h/mL; in data set [1] (setting [4]), 8970 ng·h/mL; in data set [1] (setting [5]), 5810 ng·h/mL; in data set [1] (setting [6]), 10300 ng·h/mL; in data set [1] (setting [7]) it was 6530 ng·h/mL. In data set [1] (monkey, 1 mg/Kg IV), the “DMPK property over enasidenib (drug exposure AUC and half-life)” value was “superior DMPK property over enasidenib”. In data set [2] (FIG. 3), the “formation of hydroxylation product on aromatic ring compared to enasidenib” value is on record as “similar”. Also, in data set [2] (FIG. 3), the “hydroxylation on the side chain compared to enasidenib” value was “greatly reduced”. Besides, the “formation of de-alkylation product compared to enasidenib” value in data set [2] (FIG. 4) was “significantly slowed down”. In addition, at IDH2 R140Q, half-maximal inhibition (IC50) required 360 nM. For the same molecule, the “IC50 difference from that of enasidenib” value against IDH2 R140Q is at most 10%.
Regarding `CC(C)(O)CNc1nc(Nc2ccnc(C(F)(F)F)c2)nc(-c2cccc(C(F)(F)F)n2)n1` [Enasidenib, enasidenib, reference compound], the AUC in data set [1] (setting [3]) came to 5200 ng·h/mL; in data set [1] (setting [4]), 7780 ng·h/mL; in data set [1] (setting [5]) it was 3440 ng·h/mL; in data set [1] (setting [6]) it was 4290 ng·h/mL; in data set [1] (setting [7]) it was 5290 ng·h/mL. Moreover, at IDH2 R140Q, half-maximal inhibition (IC50) was put at 362 nM.

Source of the values: patent publication US9688659B2, “Deuterated compounds for treating hematologic malignancies, and compositions and methods thereof” (NeuForm Pharmaceuticals, Inc., priority 2015, dated 2017).
